# Residues, ends and D or L forms follow the SMILES beside them.
# Test system: Caco-2 cells
# Assay: Effect on migration of gastrointestinal mucosal tissue cells (cut in a confluent Caco-2 cell layer, cell spreading area)
# Type: cell-based, human
# Settings: for Migration of Caco-2 cells (%): 18 hours, control = 100%, mean ± standard error, 8 samples
# Method: An effect on cell migration was studied by the following method using Caco-2 cells which are a human colon cancer cell line.
# In a 24-well plate coated with type IV collagen, Caco-2 cells were seeded at […] cells per well and cultured to confluence in a DMEM medium containing 10% FBS. A cut was formed in the cell layer using a razor blade, and a cell-free region was created with a cotton swab. After washing with a DMEM medium containing 1% FBS, the cells were cultured for 18 hours in the same medium containing each test compound under conditions of 37° C. and 5% CO2. The effect on the migration of Caco-2 cells was studied by taking pictures before adding the test compound and at 18 hours after the addition of the test compound and comparing cell spreading areas in a fixed region at 18 hours after the addition of the test compounds. Further, Caco-2 cells cultured in the same manner in the medium without containing the test compound were used as a control.
# The results of the case where a single agent of SSSR was used are shown in Table 1, and the results of the case where SSSR and FGLM-NH2 were used in combination are shown in Table 2. In the tables, the migration of the Caco-2 cells is expressed as a mean and standard error calculated from the results of 8 samples for each test compound by taking the migration of the control cells as a standard (100%). Incidentally, the symbol “★★” indicates a statistical significance at a P value of <0.001 compared to the control.
Migration of Caco-2 cells (%) (FGLM-NH2 20 μM),Migration of Caco-2 cells (%) (SSSR 10 nM),Migration of Caco-2 cells (%) (SSSR 30 μM),Effect on migration of Caco-2 cells (in words) (SSSR trifluoroacetate at 30 μM),Structure (SMILES),"Effect on migration of Caco-2 cells (in words) (single agent, FGLM-NH2 trifluoroacetate at 20 μM)","Effect on migration of Caco-2 cells (in words) (single agent, SSSR trifluoroacetate at 10 nM)"
105.9 ± 3.9%,–,–,–,"CSCC[C@H](NC(=O)[C@H](CC(C)C)NC(=O)CNC(=O)[C@@H](N)Cc1ccccc1)C(N)=O [FGLM-NH2, Phe-Gly-Leu-Met-NH2] (H-FGLM-NH2; N-terminus assumed)",does not promote the migration of Caco-2 cells,–
–,109.7 ± 5.1%,125.0 ± 2.0 %,promotes the migration of Caco-2 cells,"N=C(N)NCCC[C@H](NC(=O)[C@H](CO)NC(=O)[C@H](CO)NC(=O)[C@@H](N)CO)C(=O)O [SSSR, Ser-Ser-Ser-Arg] (H-SSSR-OH; N-terminus and C-terminus assumed)",–,does not promote the migration of Caco-2 cells

# Reference: patent US20120225817A1, “THERAPEUTIC AGENT FOR GASTROINTESTINAL DISEASE” (Santen Pharmaceutical Co., Ltd., priority 2009, published 2012)
